Results reported in US11661413B2, “Pyrazole compounds or salts thereof, preparation method therefor, herbicidal composition and use thereof” (priority 2015, dated 2023).

What was measured:
Rice = test: transplanted rice safety evaluation; format: in vivo; details: transplanted 3 leaf stage japonica rice, 500 g a.i./ha, treated 5 days after transplantation, 21 days after treatment, naked eye
Method: In addition, the rice field soil that loaded into the 1/1,000,000 ha pot was leveled to keep water storage at 3-4 cm depth. The 3 leaf stage rice (japonica rice) was transplanted at 3 cm of transplanting depth the next day. The compound of the present invention was treated by the same way after 5 days of transplantation.
(§1) The fertility condition of Echinochloa, Scirpus juncoides, Bidens tripartite and Sagittaria trifolia 14 days after the treatment of the compound of the invention and the fertility condition of rice 21 days after the treatment of the compound of the invention respectively with the naked eye.

Wheat = test: post emergence stage greenhouse pot spray, wheat safety; format: in vivo; details: 16 g/mu, sprayed at 2-3 leaf stage, after 3 weeks; further: key: 10: completely dead; above 90% growth inhibition rate; above 80% growth inhibition rate; above 70% growth inhibition rate; above 60% growth inhibition rate; above 50% growth inhibition rate; 4: above 30% growth inhibition rate; above 30% growth inhibition rate; above 20% growth inhibition rate; above 1-10% growth inhibition rate; 0: no effect
Method: (§2) The activity level standard of harmful plant damage (i.e. growth inhibition rate) is as follows: The above described growth control rate is fresh weight control rate. Monocotyledonous and dicotyledonous weed seeds and main crop seeds (i.e. wheat, corn, rice, soybean, cotton, oilseed, millet and Sorghum) were put into a plastic pot loaded with soil. Then covered with 0.5-2 cm soil, the seeds were allowed to grow in good greenhouse environment. The test plants were treated at 2-3 leaf stage 2-3 weeks after sowing. […] The solution was sprayed to the plants with a sprayer. Then the plants were cultured for 3 weeks in the greenhouse.

Flixweed = test: weed control effect in post emergence stage, greenhouse pot spray; format: in vivo; details: 16 g/mu, sprayed at 2-3 leaf stage, after 3 weeks
Method: as §2

Barnyard grass [1] = test: as above; format: in vivo; details: sprayed at 2-3 leaf stage, after 3 weeks
Method: as §2

Corn = test: post emergence stage greenhouse pot spray, corn safety; format: in vivo; details: 16 g/mu, sprayed at 2-3 leaf stage, after 3 weeks; further: key: 10: completely dead; above 90% growth inhibition rate; above 80% growth inhibition rate; above 70% growth inhibition rate; above 60% growth inhibition rate; above 50% growth inhibition rate; 4: above 30% growth inhibition rate; above 30% growth inhibition rate; above 20% growth inhibition rate; above 1-10% growth inhibition rate; 0: no effect
Method: as §2

rushlike bulrush = test: weed control effect in transplanted rice field (pot, water application); format: in vivo, Scirpus juncoides; details: 500 g a.i./ha, treated at 0.5 leaf stage, 14 days after treatment, naked eye, weed resistant to pyrazosulfuron-ethyl
Method: (§3) Rice field soil was loaded into a 1/1,000,000 ha pot. The seeds of Echinochloa, Scirpus juncoides, Bidens tripartite and Sagittaria trifolia were sowed and gently covered with soil, then left to stand still in greenhouse in the state of 0.5-1 cm of water storage. The tuber of Sagittaria trifolia was planted in the next day or 2 days later. It was kept at 3-4 cm of water storage thereafter. The weeds were treated by dripping the WP or SC water diluents prepared according to the common preparation method of the compounds of the present invention with pipette homogeneously to achieve specified effective amount when Echinochloa, Scirpus juncoides and Bidens tripartite reached 0.5 leaf stage and Sagittaria trifolia reached the time point of primary leaf stage.
as §1
(§4) Note: The seeds of barnyard grass, rushlike bulrush, arrowhead and beggartick are collected from Heilongjing Province of China. Tests indicate that the weeds are resistant to common application rate of pyrazosulfuron-ethyl.

Barnyard grass [2] = test: as above; format: in vivo, Echinochloa; details: 500 g a.i./ha, treated at 0.5 leaf stage, 14 days after treatment, naked eye, weed resistant to pyrazosulfuron-ethyl
Method: as §3, §1, §4

Beggartick = test: as above; format: in vivo, Bidens tripartite; details: 500 g a.i./ha, treated at 0.5 leaf stage, 14 days after treatment, naked eye, weed resistant to pyrazosulfuron-ethyl
Method: as §3, §1, §4

Ning Jing 43 = test: post emergence stage greenhouse pot spray, rice safety; format: in vivo; set-up: key: 10: completely dead; above 90% growth inhibition rate; above 80% growth inhibition rate; above 70% growth inhibition rate; above 60% growth inhibition rate; above 50% growth inhibition rate; 4: above 30% growth inhibition rate; above 30% growth inhibition rate; above 20% growth inhibition rate; above 1-10% growth inhibition rate; 0: no effect; details: sprayed at 2-3 leaf stage, after 3 weeks
Method: as §2

Arrowhead = test: weed control effect in transplanted rice field (pot, water application); format: in vivo, Sagittaria trifolia; details: 500 g a.i./ha, treated at primary leaf stage, 14 days after treatment, naked eye, weed resistant to pyrazosulfuron-ethyl
Method: as §3, §1, §4

Compound | damage (activity level), Rice (Rice) | damage (activity level), Wheat (Wheat) | weed control effect (activity level), Flixweed (Flixweed) | weed control effect (activity level), Barnyard grass (Barnyard grass [1]; 1 g/mu) | weed control effect (activity level), Barnyard grass (Barnyard grass [1]; 2 g/mu) | weed control effect (activity level), Barnyard grass (Barnyard grass [1]; 4 g/mu) | weed control effect (activity level), Barnyard grass (Barnyard grass [1]; 8 g/mu) | weed control effect (activity level), Barnyard grass (Barnyard grass [1]; 16 g/mu) | damage (activity level), Corn (Corn) | weed control effect (activity level), rushlike bulrush (rushlike bulrush) | weed control effect (activity level), Barnyard grass (Barnyard grass [2]) | weed control effect (activity level), Beggartick (Beggartick) | damage (activity level), Ning Jing 43 (Ning Jing 43; 1 g/mu) | damage (activity level), Ning Jing 43 (Ning Jing 43; 2 g/mu) | damage (activity level), Ning Jing 43 (Ning Jing 43; 4 g/mu) | damage (activity level), Ning Jing 43 (Ning Jing 43; 8 g/mu) | damage (activity level), Ning Jing 43 (Ning Jing 43; 16 g/mu) | weed control effect (activity level), Arrowhead (Arrowhead)
Cc1ccc(S(=O)(=O)Oc2c(C(=O)c3ccc(S(C)(=O)=O)c(Cn4nc(C)cc4C)c3Cl)c(C)nn2C)cc1 [Compound 33] | 1 (above 1-10% growth inhibition rate) | 0 | 10 | 4 (above 30% growth inhibition rate) | 6 (above 60% growth inhibition rate) | 5 (above 50% growth inhibition rate) | 7 (above 70% growth inhibition rate) | 8 (above 80% growth inhibition rate) | 0 | 10 | 10 | 10 | 0 | 0 | 0 | 0 | 0 | 10
CCc1nn(C)c(O)c1C(=O)c1ccc(S(C)(=O)=O)c(Cn2cc(Cl)cn2)c1Cl [Compound 5] | – | – | 10 | 2 (above 20% growth inhibition rate) | 2 (above 20% growth inhibition rate) | 4 (above 30% growth inhibition rate) | 7 (above 70% growth inhibition rate) | 8 (above 80% growth inhibition rate) | – | 10 | 10 | 10 | – | – | – | – | – | 10
Cc1cnn(Cc2c(S(C)(=O)=O)ccc(C(=O)c3c(C)nn(C)c3O)c2Cl)c1 [Compound 1] | – | – | 10 | 4 (above 30% growth inhibition rate) | 7 (above 70% growth inhibition rate) | 8 (above 80% growth inhibition rate) | 10 | 10 | – | 10 | 10 | 9 (above 90% growth inhibition rate) | – | – | – | – | – | 8 (above 80% growth inhibition rate)
Cc1cc(C)n(Cc2c(S(C)(=O)=O)ccc(C(=O)c3c(C)nn(C)c3OCC(=O)OC(C)(C)C)c2Cl)n1 [Compound 35] | – | – | 10 | 3 (above 30% growth inhibition rate) | 3 (above 30% growth inhibition rate) | 4 (above 30% growth inhibition rate) | 4 (above 30% growth inhibition rate) | 5 (above 50% growth inhibition rate) | – | 10 | 10 | 10 | – | – | – | – | – | 9 (above 90% growth inhibition rate)
Cc1cc(C)n(Cc2c(S(C)(=O)=O)ccc(C(=O)c3c(C4CC4)nn(C)c3O)c2Cl)n1 [Compound 13] | – | – | 10 | 2 (above 20% growth inhibition rate) | 2 (above 20% growth inhibition rate) | 2 (above 20% growth inhibition rate) | 5 (above 50% growth inhibition rate) | 7 (above 70% growth inhibition rate) | – | 9 (above 90% growth inhibition rate) | 10 | 9 (above 90% growth inhibition rate) | – | – | – | – | – | 9 (above 90% growth inhibition rate)
Cc1cc(C)n(Cc2c(S(C)(=O)=O)ccc(C(=O)c3c(C)nn(C)c3O)c2Cl)n1 [Compound 4] | – | – | 10 | 3 (above 30% growth inhibition rate) | 4 (above 30% growth inhibition rate) | 5 (above 50% growth inhibition rate) | 5 (above 50% growth inhibition rate) | 7 (above 70% growth inhibition rate) | – | 10 | 10 | 9 (above 90% growth inhibition rate) | – | – | – | – | – | 9 (above 90% growth inhibition rate)
CCn1nc(C2CC2)c(C(=O)c2ccc(S(C)(=O)=O)c(Cn3nc(C)cc3C)c2Cl)c1O [Compound 23] | – | – | 10 | 2 (above 20% growth inhibition rate) | 3 (above 30% growth inhibition rate) | 5 (above 50% growth inhibition rate) | 7 (above 70% growth inhibition rate) | 8 (above 80% growth inhibition rate) | – | – | – | – | – | – | – | – | – | –
Cn1ncc(C(=O)c2ccc(S(C)(=O)=O)c(Cn3cc(Cl)cn3)c2Cl)c1O [Compound 10] | – | – | 10 | 2 (above 20% growth inhibition rate) | 4 (above 30% growth inhibition rate) | 4 (above 30% growth inhibition rate) | 7 (above 70% growth inhibition rate) | 8 (above 80% growth inhibition rate) | – | – | – | – | – | – | – | – | – | –
Cc1ccn(Cc2c(S(C)(=O)=O)ccc(C(=O)c3cnn(C)c3O)c2Cl)n1 [Compound 8] | – | – | 10 | 2 (above 20% growth inhibition rate) | 2 (above 20% growth inhibition rate) | 4 (above 30% growth inhibition rate) | 7 (above 70% growth inhibition rate) | 8 (above 80% growth inhibition rate) | – | – | – | – | – | – | – | – | – | –
CCOC(=O)Oc1c(C(=O)c2ccc(S(C)(=O)=O)c(Cn3cc(C)cn3)c2Cl)c(C)nn1C [Compound 31] | 1 (above 1-10% growth inhibition rate) | 0 | 10 | 3 (above 30% growth inhibition rate) | 5 (above 50% growth inhibition rate) | 6 (above 60% growth inhibition rate) | 8 (above 80% growth inhibition rate) | 9 (above 90% growth inhibition rate) | 0 | 10 | 10 | 10 | 0 | 0 | 0 | 0 | 0 | 9 (above 90% growth inhibition rate)
Cc1cnn(Cc2c(S(C)(=O)=O)ccc(C(=O)c3c(C4CC4)nn(C)c3O)c2Cl)c1 [Compound 12] | – | – | 10 | 2 (above 20% growth inhibition rate) | 4 (above 30% growth inhibition rate) | 6 (above 60% growth inhibition rate) | 7 (above 70% growth inhibition rate) | 8 (above 80% growth inhibition rate) | – | – | – | – | – | – | – | – | – | –
